Data on 1 compound can be found in ChEMBL document CHEMBL4118095, “Conjugation of Paclitaxel to Hybrid Peptide Carrier and Biological Evaluation in Jurkat and A549 Cancer Cell Lines” (ACS Med Chem Lett, 2017).

In this assay the test system is A549. The experiment in a line: Cytotoxicity against human A549 cells measured after 24 hrs. Format: functional, cell-based. The note with it: A549, 24 h.

SMILES strings stand for the structures.

As a reminder, the IC50 is the concentration at which inhibition is half-maximal. `CC(=O)O[C@H]1C(=O)[C@@]2(C)[C@H]([C@H](OC(=O)c3ccccc3)[C@]3(O)C[C@H](OC(=O)[C@H](O)[C@@H](NC(=O)c4ccccc4)c4ccccc4)C(C)=C1C3(C)C)[C@]1(OC(C)=O)CO[C@@H]1C[C@@H]2O` [PACLITAXEL] displayed an IC50 of 4.1 nM.
